We go through one substance from patent publication US6602852B1, “Basic peptides and pharmaceutical compositions containing same” (NST NeuroSurvival Technologies, Ltd., priority 1998, dated 2003).

In experiment [1] the test system is thrombin generation on apoptotic HeLa cells. The protocol: One of the final steps of both intrinsic and extrinsic pathways of coagulation, is the generation of thrombin from prothrombin. Thrombin is the final protease generated in the sequence of coagulation reaction, and its activity entails conversion of fibrinogen to fibrin, that forms the clot. Generation of thrombin on the pro-coagulant surface of apoptotic cells was assayed (according to Bombeli T. et al., 1997, Blood 89(7), 2429-2442), by determining its activity, using the chromogenic substrate S-2366 (from Chromogenix, Sweden). Samples of pro-coagulant cells (HeLa cells treated with 500 μM of DA for 18 hours) were used for the assay.

Experiment [2] deals with procoagulant activity of apoptotic HeLa S3 cells. As to conditions: 0.5 μM. The protocol:
In the standard APTT test, clot formation is triggered by recalcification of plasma and addition of cephalin, i.e. negatively-charged phospholipids. Time until clot formation was measured as described in Example 3. […] In the modified APTT test, used in the present study, the addition of negatively-charged phospholipids (cephalin) was replaced by addition of apoptotic cells.
The cultured medium was discarded, and cells that were loosely attached to the growing surface, were collected in PBS, as described in Example 2B. These cells were washed and resuspended in TBS, and were regarded as advanced apoptotic cells. Equal numbers of apoptotic or control non-treated cells (10^5) in a volume of 100 μl, were mixed with 100 μl of 25 mM of CaCl2 and the clotting time was measured. […] Inhibition of their procoagulant activity by NST300 compounds was tested following pre-incubation of apoptotic cells with the different NST300 compounds.
Pre-incubation of equal numbers of apoptotic or control non-treated cells (10^5) with NST300 compounds was for 10 minutes at room temperature in a final volume of 100 μl. The compounds were used at concentration of 0.5 μM. The results can be seen in FIG. 5a.

The subject of experiment [3] is clotting induced by negatively charged phospholipids in normal plasma. As to conditions: 0.5-50 μM; control clotting time 40 seconds. The protocol:
The ability of NST300 compounds to inhibit coagulaton catalyzed by negatively—charged phospholipids was evaluated in a standard coagulation test of the Russell viper venom (RVV) assay. The RVV reagent directly activates factor x present in the plasma, thus promoting prothrombinase complex formation. This reagent is widely used as a standard phospholipid responsive clotting test. (Thiagarajan et al., Blood, 1986; 869-874).
The RVV reagent kit, containing RVV and negatively charged phospholipids, from Gradipore, Australia was used. The reactions were started by mixing 100 μl of RVV reagent, and 100 μl of quality control plasma collected from normal individuals (commercially available from Instrumentation Laboratory, Italy). Clotting time was determined as the time-point beyond which the continuously mixed reaction ingredients in the test tube, could no longer be aspirated with a pasteur pipette. Clotting time was measured independently by two separate researchers.

For experiment [4], the system named is Cardiolipin (CL) / anti β2GPI. The protocol:
Antiphospholipid antibodies (APLA) comprise a family of antibodies characterized by their reactivity with negatively charged phospholipids in vitro. The target or many anti-phospholipid antibodies is either a complex between anionic phospholipid and the plasma protein Apolipoprotein-H (β2GPI) or the protein β2GPI alone bound to PS (McNeil et al., 1990, Matsurra et al., 1994). […] The assay was performed as essentially described above for anti CL ELISA with several modifications. […] Following washes, the wells were incubated for 1 hour with 1/10000 of Peroxidase-conjugated affinity purified rabbit anti goat IgG (Jackson Immunoresearch lab. PA) in PBS/BSA buffer. Washes and development were as described for anti CL ELISA. In the following experiments, CL coated wells were incubated with 1/500 dilution or affinity purified goat anti-human β2GPI in 10% normal plasma (as a source for β2GPI protein and buffering condition).

Experiment [5] has as its system Human Umbilical Vein Endothelial Cells (HUVEC). The note with it: 500 ng of compound, 40 minutes. The procedure:
HUVEC (CC-2517, obtained from Clonetics, Walkersville, Md.) were grown on tissue culture flasks in Endothelial cell medium (EGM-2 Bulletkit, CC 3162, Clonetics). Mid-confluent cultures were harvested using Trypsine/EDTA solution (CC-5012, Clonetics). The cells were rinsed twice with PBS containing 2% BSA and kept on ice. Samples of 10^6 cells were tested for binding.
The reactions were incubated at room temperature for 40 minutes and then 400 μl of TBS-BSA were added and cells were collected by centrifugation at 3000×g for 3 minutes. Cells were washed in 1 ml of TBS-BSA and centrifuged as before and then suspended in 100 μl of TBS-BSA containing streptavidin conjugated to flourescein (FITC) for detection of the bound biotinylated compound. […] Thereafter, 400 μl of TBS-BSA were added and cells were centrifuged and washed again with 1 ml of TBS-BSA as before and then resuspended in 400 μl of TSS and taken for FACS analysis.
The FACS analysis was performed on Beckton-Dickinson cell sorter, using lysis II software. Excitation was at 488 nm and emission for FITC detection was a 535 nm.
A dot plot analysis was done for each treatment.

For the next experiment, the system named is HUVEC cells. The protocol: (§1) Anti β2GPI antibodies are present in sera of APS patients. […] For cell-ELISA tests, HUVEC cells or BeWo cells (both at 40,000/well), were plated on 96 well tissue culture plates (Nunc) in 200 ul of the culture medium, and allowed to grow for 18-22 hours. Following 2 washes with Hepes buffer (10 mM Hepes pH, 8, 140 mM NaCl) and 5 min incubation with the culture medium, the wells were incubated for 3 hr with 10% of normal plasma in PBS (as a source of β2GPI protein), supplemented with 1/500 of goat anti-human Apolipoprotein-H (β2GPI) (Affinity Biologicals, Pa.) Parallel control wells were incubated with 10% of normal plasma from Ilex. Serial dilutions of NST compounds were prepared in plasma/PBS. Washes and development were as described for anti CL ELISA.

The subject of the next experiment is BeWo cells. The procedure:
as §1

Turning to “Myristate-KKKKKRFSFKKSFKLSGFSFKKNKKK (SEQUENCE ID NO. 2)-(biotin) [NST302]”, in experiment [1] (25 μM), the “delay factor of time needed to achieve 50% of thrombin activity” value was 2.25 and the “time needed to achieve 50% of thrombin activity” value was determined as 4.5 min. Further, in experiment [1] (5-25 μM), the “rate of thrombin activity and lag time for activating the reaction” value is recorded as “delayed”. Besides, in experiment [1] (5-25 μM tested), the “concentration at which inhibition of thrombin generation is observed already” value came out at 5 µM. The “effect on procoagulant effect of apoptotic cells” value in experiment [2] (FIG. 5a) is recorded as “fully reversing”. Moreover, the “increase of clotting time by a factor” value in experiment [2] (apoptotic cells) came to 2. Also, the “increase of clotting time by a factor as compared to control” value in experiment [3] is 3.1. In addition, in experiment [4] (10% normal plasma), the “concentration of complete inhibition of anti β2GPI binding to CL” value was 50 µM and the “concentrations giving significant displacement of anti β2GPI from CL” value fell in the range of 0.1 to 50 µM. Also, in experiment [4] (FIG. 6c), the “inhibition of anti β2GPI binding to CL” value is “Complete inhibition”. Also, the “cells FITC positive” value in experiment [5] is “About 70%”. Further, in the experiment with HUVEC cells, the “concentration of maximum effect of displacement of anti β2GPI” value came out at 50 µM. Moreover, in the experiment on HUVEC cells (FIG. 6d), the “blocking of binding to pro-coagulant surface of cells” value was “dramatic and significant ability to block binding”. Moreover, the “concentration of maximum effect of displacement of anti β2GPI” value in the experiment with BeWo cells came to 50 µM. The “blocking of binding to pro-coagulant surface of cells” value in the experiment on BeWo cells (FIG. 6e) was “dramatic and significant ability to block binding”.
